Measurements reported in patent publication US10004701B2, “Methods and compositions for treating infection” (UNIVERSITY OF ROCHESTER, priority 2012, dated 2018).
Structures can show the parent of a compound that is named as a salt. Where two headings read alike, the source gives them in different places.

Experiments:
Assay in all cases: AK assay 384-well format, Prestwick library screening
K. pneumoniae = type: cell-based, Klebsiella pneumoniae; settings: 50 μM final drug concentration; for fold induction at 50 µM: Klebsiella pneumoniae, 3 h
[1] = tested on: A. baumannii strain 98-37-09; type: cell-based, Acinetobacter baumannii; settings: 50 μM final drug concentration; for fold induction at 50 µM: Acinetobacter baumannii, 983709, 3 h
P. aeruginosa = type: cell-based, Pseudomonas aeruginosa; settings: 50 μM final drug concentration; for fold induction at 50 µM: Pseudomonas aeruginosa, 3 h
E. faecium = type: cell-based, Enterococcus faecium; settings: 50 μM final drug concentration; for fold induction at 50 µM: Enterococcus faecium, 3 h
E. cloacae = type: cell-based, Enterobacter cloacae; settings: 50 μM final drug concentration; for fold induction at 50 µM: Enterobacter cloacae, 3 h
[2] = tested on: S. aureus strain USA300-0114; type: cell-based, Staphylococcus aureus; settings: 50 μM final drug concentration; for fold induction at 50 µM: Staphylococcus aureus, USA300, 3 h
E. coli = type: cell-based, Escherichia coli; settings: 50 μM final drug concentration; for fold induction at 50 µM: Escherichia coli, 3 h
[3] = planktonic, cutoff for positive 3-fold increase, read-out: AK-based Prestwick Library Screening Results, K. pneumoniae (fold increase in extracellular AK activity)
[4] = planktonic, cutoff for positive 3-fold increase, read-out: AK-based Prestwick Library Screening Results, A. baumannii (fold increase in extracellular AK activity)
[5] = planktonic, cutoff for positive 3-fold increase, read-out: AK-based Prestwick Library Screening Results, P. aeruginosa (fold increase in extracellular AK activity)
[6] = planktonic, cutoff for positive 3-fold increase, read-out: AK-based Prestwick Library Screening Results, E. faecium (fold increase in extracellular AK activity)
[7] = planktonic, cutoff for positive 3-fold increase, read-out: AK-based Prestwick Library Screening Results, E. cloacae (fold increase in extracellular AK activity)
[8] = planktonic, cutoff for positive 3-fold increase, read-out: AK-based Prestwick Library Screening Results, S. aureus (fold increase in extracellular AK activity)
[9] = planktonic, cutoff for positive 3-fold increase, read-out: AK-based Prestwick Library Screening Results, E. coli (fold increase in extracellular AK activity)
[10] = 384-well format, cutoff for positive-scoring molecules 3-fold increase, read-out: AK-based Prestwick Library Screening Results, K. pneumoniae (increase in extracellular AK activity)
[11] = 384-well format, cutoff for positive-scoring molecules 3-fold increase, read-out: AK-based Prestwick Library Screening Results, A. baumannii (increase in extracellular AK activity)
[12] = 384-well format, cutoff for positive-scoring molecules 3-fold increase, read-out: AK-based Prestwick Library Screening Results, P. aeruginosa (increase in extracellular AK activity)
[13] = 384-well format, cutoff for positive-scoring molecules 3-fold increase, read-out: AK-based Prestwick Library Screening Results, E. faecium (increase in extracellular AK activity)
[14] = 384-well format, cutoff for positive-scoring molecules 3-fold increase, read-out: AK-based Prestwick Library Screening Results, E. cloacae (increase in extracellular AK activity)
[15] = 384-well format, cutoff for positive-scoring molecules 3-fold increase, read-out: AK-based Prestwick Library Screening Results, S. aureus (increase in extracellular AK activity)
[16] = 384-well format, cutoff for positive-scoring molecules 3-fold increase, read-out: AK-based Prestwick Library Screening Results, E. coli (increase in extracellular AK activity)
[17] = planktonic K. pneumoniae, positive cutoff 3-fold increase, read-out: AK-based Prestwick library screening result, K. pneumoniae (fold increase in extracellular AK activity)
[18] = planktonic A. baumannii, positive cutoff 3-fold increase, read-out: AK-based Prestwick library screening result, A. baumannii (fold increase in extracellular AK activity)
[19] = planktonic P. aeruginosa, positive cutoff 3-fold increase, read-out: AK-based Prestwick library screening result, P. aeruginosa (fold increase in extracellular AK activity)
[20] = planktonic E. faecium, positive cutoff 3-fold increase, read-out: AK-based Prestwick library screening result, E. faecium (fold increase in extracellular AK activity)
[21] = planktonic E. cloacae, positive cutoff 3-fold increase, read-out: AK-based Prestwick library screening result, E. cloacae (fold increase in extracellular AK activity)
[22] = planktonic S. aureus, positive cutoff 3-fold increase, read-out: AK-based Prestwick library screening result, S. aureus (fold increase in extracellular AK activity)
[23] = planktonic E. coli, positive cutoff 3-fold increase, read-out: AK-based Prestwick library screening result, E. coli (fold increase in extracellular AK activity)

Molecule: COc1cc([S+](C)[O-])ccc1-c1nc2ncccc2[nH]1 (centres unmarked) [Sulmazole]
- fold induction at 50 µM (K. pneumoniae; [3]): 0.5
- fold induction at 50 µM [1, 4]: 0.3
- fold induction at 50 µM (P. aeruginosa; [5]): 0.3
- fold induction at 50 µM (E. faecium; [6]): 0.9
- fold induction at 50 µM (E. cloacae; [7]): 0.3
- fold induction at 50 µM [2, 8]: 0.4
- fold induction at 50 µM (E. coli; [9]): 0.3

Molecule: CCC1(C)CC(=O)NC1=O (centres unmarked) [Ethosuximide]
- fold induction at 50 µM (K. pneumoniae; [10]): 0.6
- fold induction at 50 µM [1, 11]: 0.5
- fold induction at 50 µM (P. aeruginosa; [12]): 0.5
- fold induction at 50 µM (E. faecium; [13]): 0.9
- fold induction at 50 µM (E. cloacae; [14]): 0.6
- fold induction at 50 µM [2, 15]: 0.5
- fold induction at 50 µM (E. coli; [16]): 0.6

Molecule: CCCOc1cc(N)ccc1C(=O)OCCN(CC)CC [Propoxycaine hydrochloride]
- fold induction at 50 µM (K. pneumoniae; [17]): 0.6
- fold induction at 50 µM [1, 18]: 0.8
- fold induction at 50 µM (P. aeruginosa; [19]): 0.7
- fold induction at 50 µM (E. faecium; [20]): 1
- fold induction at 50 µM (E. cloacae; [21]): 0.8
- fold induction at 50 µM [2, 22]: 0.7
- fold induction at 50 µM (E. coli; [23]): 0.6

Molecule: CC(=O)OCC1=C(C(=O)O)N2C(=O)[C@@H](N)[C@H]2SC1 [Cephalosporanic acid, 7-amino]
- AK-based Prestwick Library Screening Results, K. pneumoniae (increase in extracellular AK activity) (K. pneumoniae; planktonic K. pneumoniae, […]): 0.7
- AK-based Prestwick Library Screening Results, A. baumannii (increase in extracellular AK activity) ([1]; planktonic A. baumannii, […]): 0.8
- AK-based Prestwick Library Screening Results, P. aeruginosa (increase in extracellular AK activity) (P. aeruginosa; planktonic P. aeruginosa, […]): 0.8
- AK-based Prestwick Library Screening Results, E. faecium (increase in extracellular AK activity) (E. faecium; planktonic E. faecium, […]): 0.9
- AK-based Prestwick Library Screening Results, E. cloacae (increase in extracellular AK activity) (E. cloacae; planktonic E. cloacae, […]): 0.8
- AK-based Prestwick Library Screening Results, S. aureus (increase in extracellular AK activity) ([2]; planktonic S. aureus, […]): 0.6
- AK-based Prestwick Library Screening Results, E. coli (increase in extracellular AK activity) (E. coli; planktonic E. coli, […]): 0.9

Molecule: Thioproperazine dimesylate
- AK-based Prestwick Library Screening Results: K. pneumoniae (increase in extracellular AK activity) (K. pneumoniae; planktonic K. pneumoniae, 384-well, cutoff for positive-scoring molecules 3-fold increase): 1.1
- AK-based Prestwick Library Screening Results: A. baumannii (increase in extracellular AK activity) ([1]; planktonic A. baumannii, 384-well, cutoff for positive-scoring molecules 3-fold increase): 1.7
- AK-based Prestwick Library Screening Results: P. aeruginosa (increase in extracellular AK activity) (P. aeruginosa; planktonic P. aeruginosa, 384-well, cutoff for positive-scoring molecules 3-fold increase): 1.1
- AK-based Prestwick Library Screening Results: E. faecium (increase in extracellular AK activity) (E. faecium; planktonic E. faecium, 384-well, cutoff for positive-scoring molecules 3-fold increase): 1.0
- AK-based Prestwick Library Screening Results: E. cloacae (increase in extracellular AK activity) (E. cloacae; planktonic E. cloacae, 384-well, cutoff for positive-scoring molecules 3-fold increase): 1.3
- AK-based Prestwick Library Screening Results: S. aureus (increase in extracellular AK activity) ([2]; planktonic S. aureus, 384-well, cutoff for positive-scoring molecules 3-fold increase): 1.0
- AK-based Prestwick Library Screening Results: E. coli (increase in extracellular AK activity) (E. coli; planktonic E. coli, 384-well, cutoff for positive-scoring molecules 3-fold increase): 1.5

Molecule: C[C@]12CC[C@H]3[C@@H](CC[C@]4(O)C[C@@H](O)CC[C@]34C=O)[C@@]1(O)CC[C@@H]2C1=CC(=O)OC1 [Strophanthidin]
- fold induction at 50 µM (K. pneumoniae; […], read-out: AK-based Prestwick Library Screening Results, K. pneumoniae (fold increase in extracellular AK activity)): 1.1
- fold induction at 50 µM ([1]; […], read-out: AK-based Prestwick Library Screening Results, A. baumannii (fold increase in extracellular AK activity)): 1.3
- fold induction at 50 µM (P. aeruginosa; […], read-out: AK-based Prestwick Library Screening Results, P. aeruginosa (fold increase in extracellular AK activity)): 1.1
- fold induction at 50 µM (E. faecium; […], read-out: AK-based Prestwick Library Screening Results, E. faecium (fold increase in extracellular AK activity)): 1
- fold induction at 50 µM (E. cloacae; […], read-out: AK-based Prestwick Library Screening Results, E. cloacae (fold increase in extracellular AK activity)): 1.3
- fold induction at 50 µM ([2]; […], read-out: AK-based Prestwick Library Screening Results, S. aureus (fold increase in extracellular AK activity)): 1.3
- fold induction at 50 µM (E. coli; […], read-out: AK-based Prestwick Library Screening Results, E. coli (fold increase in extracellular AK activity)): 1.4

Molecule: CCC(=O)[C@@]1(C)[C@H](C)C[C@H]2[C@@H]3CCC4=CC(=O)C=C[C@]4(C)[C@H]3[C@@H](O)C[C@@]21C [Rimexolone]
- fold induction at 50 µM (K. pneumoniae; [17]): 0.8
- fold induction at 50 µM [1, 18]: 0.9
- fold induction at 50 µM (P. aeruginosa; [19]): 1
- fold induction at 50 µM (E. faecium; [20]): 0.9
- fold induction at 50 µM (E. cloacae; [21]): 4.9
- fold induction at 50 µM [2, 22]: 1.1
- fold induction at 50 µM (E. coli; [23]): 0.9

Molecule: NC[C@H]1O[C@H](O[C@H]2[C@H](O)[C@@H](O[C@H]3O[C@H](CO)[C@@H](O)[C@H](N)[C@H]3O)[C@H](N)C[C@@H]2N)[C@H](N)C[C@@H]1O [Tobramycin]
- fold induction at 50 µM (K. pneumoniae; [3]): 2
- fold induction at 50 µM [1, 4]: 5.7
- fold induction at 50 µM (P. aeruginosa; [5]): 17.1
- fold induction at 50 µM (E. faecium; [6]): 0.9
- fold induction at 50 µM (E. cloacae; [7]): 1.5
- fold induction at 50 µM [2, 8]: 1.1
- fold induction at 50 µM (E. coli; [9]): 7.5

Molecule: COC(=O)[C@H]1[C@H]2C[C@H]3c4[nH]c5ccccc5c4CCN3C[C@@H]2CC[C@@H]1O.Cl [Corynanthine hydrochloride]
- AK-based Prestwick Library Screening Results, K. pneumoniae (increase in extracellular AK activity) (K. pneumoniae; planktonic K. pneumoniae, cutoff for positive-scoring molecules 3-fold increase): 0.6
- AK-based Prestwick Library Screening Results, A. baumannii (increase in extracellular AK activity) ([1]; planktonic A. baumannii, cutoff for positive-scoring molecules 3-fold increase): 0.6
- AK-based Prestwick Library Screening Results, P. aeruginosa (increase in extracellular AK activity) (P. aeruginosa; planktonic P. aeruginosa, cutoff for positive-scoring molecules 3-fold increase): 0.7
- AK-based Prestwick Library Screening Results, E. faecium (increase in extracellular AK activity) (E. faecium; planktonic E. faecium, cutoff for positive-scoring molecules 3-fold increase): 1.0
- AK-based Prestwick Library Screening Results, E. cloacae (increase in extracellular AK activity) (E. cloacae; planktonic E. cloacae, cutoff for positive-scoring molecules 3-fold increase): 0.8
- AK-based Prestwick Library Screening Results, S. aureus (increase in extracellular AK activity) ([2]; planktonic S. aureus, cutoff for positive-scoring molecules 3-fold increase): 0.7
- AK-based Prestwick Library Screening Results, E. coli (increase in extracellular AK activity) (E. coli; planktonic E. coli, cutoff for positive-scoring molecules 3-fold increase): 0.7

Molecule: C[C@]12C=CC(=O)C=C1CC[C@@H]1[C@@H]2[C@@H](O)C[C@@]2(C)[C@H]1CC[C@]2(O)C(=O)CO [Prednisolone]
- fold induction at 50 µM (K. pneumoniae; [10]): 0.7
- fold induction at 50 µM [1, 11]: 1
- fold induction at 50 µM (P. aeruginosa; [12]): 1
- fold induction at 50 µM (E. faecium; [13]): 1
- fold induction at 50 µM (E. cloacae; [14]): 1.3
- fold induction at 50 µM [2, 15]: 0.8
- fold induction at 50 µM (E. coli; [16]): 1

Molecule: O=C1c2c(O)ccc(O)c2C(=O)c2c(NCCNCCO)ccc(NCCNCCO)c21 [Mitoxantrone dihydrochloride]
- fold induction at 50 µM (K. pneumoniae; [3]): 1
- fold induction at 50 µM [1, 4]: 1.5
- fold induction at 50 µM (P. aeruginosa; [5]): 0.9
- fold induction at 50 µM (E. faecium; [6]): 0.8
- fold induction at 50 µM (E. cloacae; [7]): 1.2
- fold induction at 50 µM [2, 8]: 0.7
- fold induction at 50 µM (E. coli; planktonic, […], read-out: AK-based Prestwick Library Screening Results, E. coli (fold increase in extracellular AK activity)): 1.5
